Reference: US7875647B2, “Heteroaryl-pyrazole derivatives as cannabinoid CB1 receptor antagonists” (Green Cross Corporation, priority 2006, dated 2011)

Target: T1, Cannabinoid-1 receptor (CB1R) (Rattus norvegicus, UniProt P20272)
T1 construct: The tissue obtained from the brain of SD rats was homogenized; from tissue; host or cells: brain of SD rats (membrane pellet of the homogenate)
Experiment: Cannabinoid-1 receptor (CB1R) binding affinity assay ([3H]CP-55940, rat CB-1 receptor binding protocol)
Conditions: brain tissue of SD rats, [3H]CP-55940, 30° C. 60 min; read-out: IC50

T1 sequence (P20272 whole entry): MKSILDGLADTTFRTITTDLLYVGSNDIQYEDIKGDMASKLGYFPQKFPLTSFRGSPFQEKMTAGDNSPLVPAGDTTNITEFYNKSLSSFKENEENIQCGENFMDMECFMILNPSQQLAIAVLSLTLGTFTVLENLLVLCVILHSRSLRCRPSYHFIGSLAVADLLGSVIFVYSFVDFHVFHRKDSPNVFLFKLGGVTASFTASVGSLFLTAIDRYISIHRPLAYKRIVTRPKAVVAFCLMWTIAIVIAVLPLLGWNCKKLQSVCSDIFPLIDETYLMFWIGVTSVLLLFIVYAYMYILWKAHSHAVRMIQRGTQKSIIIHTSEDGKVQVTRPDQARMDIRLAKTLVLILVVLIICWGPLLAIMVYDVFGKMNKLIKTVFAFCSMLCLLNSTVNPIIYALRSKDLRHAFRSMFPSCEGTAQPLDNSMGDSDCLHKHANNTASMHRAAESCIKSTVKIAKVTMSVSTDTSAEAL

Row | IC50 [nM] | SMILES
1 | 3.42 | Clc1ccc(-c2c(Cn3cncn3)c(-c3nnc(C4CCCCC4)o3)nn2-c2ccc(Cl)cc2Cl)cc1 [Example 316, 2-(4-((1H-1,2,4-triazol-1-yl)methyl)-5-(4-chlorophenyl)-1-(2,4-dichlorophenyl)-1H-pyrazol-3-yl)-5-cyclohexyl-1,3,4-oxadiazole]
2 | 2.89 | COc1ccc(C2(c3nnc(-c4nn(-c5ccc(Cl)cc5Cl)c(-c5ccc(Cl)cc5)c4Cn4cncn4)o3)CC2)cc1 [Example 319, 2-(4-((1H-1,2,4-triazol-1-yl)methyl)-5-(4-chlorophenyl)-1-(2,4-dichlorophenyl)-1H-pyrazol-3-yl)-5-(1-(4-methoxyphenyl)cyclopropyl)-1,3,4-oxadiazole]
3 | 1.73 | FC(F)(F)C1(c2nnc(-c3nn(-c4ccc(Cl)cc4Cl)c(-c4ccc(Cl)cc4)c3Cn3cncn3)o2)CCC1 [Example 321, 2-(4-((1H-1,2,4-triazol-1-yl)methyl)-5-(4-chlorophenyl)-1-(2,4-dichlorophenyl)-1H-pyrazol-3-yl)-5-(1-(trifluoromethyl)cyclobutyl)-1,3,4-oxadiazole]
4 | 5.29 | Clc1ccc(-c2c(Cn3cncn3)c(-c3nnc(C4(c5ccccc5)CCCC4)o3)nn2-c2ccc(Cl)cc2Cl)cc1 [Example 323, 2-(4-((1H-1,2,4-triazol-1-yl)methyl)-5-(4-chlorophenyl)-1-(2,4-dichlorophenyl)-1H-pyrazol-3-yl)-5-(1-phenylcyclopentyl)-1,3,4-oxadiazole]
5 | 4.66 | Clc1ccc(-c2c(Cn3cncn3)c(-c3nnc(C4(c5ccc(Cl)cc5)CCCC4)o3)nn2-c2ccc(Cl)cc2Cl)cc1 [Example 324, 2-(4-((1H-1,2,4-triazol-1-yl)methyl)-5-(4-chlorophenyl)-1-(2,4-dichlorophenyl)-1H-pyrazol-3-yl)-5-(1-(4-chlorophenyl)cyclopentyl)-1,3,4-oxadiazole]
6 | 2.26 | CC(C)(C)c1nnc(-c2nn(-c3ccccc3Cl)c(-c3ccc(Cl)cc3)c2Cn2cncn2)o1 [Example 325, 2-(4-((1H-1,2,4-triazol-1-yl)methyl)-1-(2-chlorophenyl)-5-(4-chlorophenyl)-1H-pyrazol-3-yl)-5-tert-butyl-1,3,4-oxadiazole]
7 | 14.8 | Cn1nnnc1Cc1c(-c2nnc(C(C)(C)C)o2)nn(-c2ccc(Cl)cc2Cl)c1-c1ccc(Cl)cc1 [Example 332, 2-tert-butyl-5-(5-(4-chlorophenyl)-1-(2,4-dichlorophenyl)-4-((1-methyl-1H-tetrazol-5-yl)methyl)-1H-pyrazol-3-yl)-1,3,4-oxadiazole]
8 | 150 | Clc1ccc(-c2c(Cl)c(-c3nnc(C4CCC4)o3)nn2-c2ccc(Cl)cc2Cl)cc1 [Example 333, 2-(4-chloro-5-(4-chlorophenyl)-1-(2,4-dichlorophenyl)-1H-pyrazol-3-yl)-5-cyclobutyl-1,3,4-oxadiazole]
9 | 105 | CC(C)(C)c1nnc(-c2nn(-c3ccc(Cl)cc3Cl)c(-c3ccc(Cl)cc3)c2Cl)o1 [Example 337, 2-tert-butyl-5-(4-chloro-5-(4-chlorophenyl)-1-(2,4-dichlorophenyl)-1H-pyrazol-3-yl)-1,3,4-oxadiazole]
10 | 30.4 | CC(C)(C)c1nnc(-c2nn(-c3ccc(Cl)cc3Cl)c(-c3ccc(Cl)cc3)c2Br)o1 [Example 338, 2-(4-bromo-5-(4-chlorophenyl)-1-(2,4-dichlorophenyl)-1H-pyrazol-3-yl)-5-tert-butyl-1,3,4-oxadiazole]
11 | 81.4 | Clc1ccc(-c2c(Br)c(-c3nnc(C4CCCCC4)o3)nn2-c2ccc(Cl)cc2Cl)cc1 [Example 341, 2-(4-bromo-5-(4-chlorophenyl)-1-(2,4-dichlorophenyl)-1H-pyrazol-3-yl)-5-cyclohexyl-1,3,4-oxadiazole]
12 | 22.2 | CC(C)(c1ccc(Cl)cc1)c1nnc(-c2nn(-c3ccc(Cl)cc3Cl)c(-c3ccc(Cl)cc3)c2Br)o1 [Example 343, 2-(4-bromo-5-(4-chlorophenyl)-1-(2,4-dichlorophenyl)-1H-pyrazol-3-yl)-5-(2-(4-chlorophenyl)propan-2-yl)-1,3,4-oxadiazole]
13 | 11.6 | Clc1ccc(-c2c(Br)c(-c3nnc(C4(c5ccc(Cl)cc5)CC4)o3)nn2-c2ccc(Cl)cc2Cl)cc1 [Example 344, 2-(4-bromo-5-(4-chlorophenyl)-1-(2,4-dichlorophenyl)-1H-pyrazol-3-yl)-5-(1-(4-chlorophenyl)cyclopropyl)-1,3,4-oxadiazole]
14 | 4.08 | Cc1c(-c2nnc(C3CCC3)s2)nn(-c2ccc(Cl)cc2Cl)c1-c1ccc(Cl)cc1 [Example 345, 2-(5-(4-chlorophenyl)-1-(2,4-dichlorophenyl)-4-methyl-1H-pyrazol-3-yl)-5-cyclobutyl-1,3,4-thiadiazole]
15 | 63.3 | Cc1c(-c2nnc(-c3cccs3)s2)nn(-c2ccc(Cl)cc2Cl)c1-c1ccc(Cl)cc1 [Example 351, 2-(5-(4-chlorophenyl)-1-(2,4-dichlorophenyl)-4-methyl-1H-pyrazol-3-yl)-5-(thiophen-2-yl)-1,3,4-thiadiazole]
16 | 41.2 | Cc1c(-c2nnc(Cc3ccccn3)s2)nn(-c2ccc(Cl)cc2Cl)c1-c1ccc(Cl)cc1 [Example 352, 2-(5-(4-chlorophenyl)-1-(2,4-dichlorophenyl)-4-methyl-1H-pyrazol-3-yl)-5-(pyridin-2-ylmethyl)-1,3,4-thiadiazole]
17 | 26 | Cc1c(-c2nnc(Cc3ccccc3)s2)nn(-c2ccc(Cl)cc2Cl)c1-c1ccc(Cl)cc1 [Example 354, 2-benzyl-5-(5-(4-chlorophenyl)-1-(2,4-dichlorophenyl)-4-methyl-1H-pyrazol-3-yl)-1,3,4-thiadiazole]
18 | 46 | CCCCc1nnc(-c2nn(-c3ccc(Cl)cc3Cl)c(-c3ccc(Cl)cc3)c2C)s1 [Example 355, 2-Butyl-5-(5-(4-chlorophenyl)-1-(2,4-dichlorophenyl)-4-methyl-1H-pyrazol-3-yl)-1,3,4-thiadiazole]
19 | 54.3 | Cc1c(-c2nnc(C3CCOCC3)s2)nn(-c2ccc(Cl)cc2Cl)c1-c1ccc(Cl)cc1 [Example 358, 2-(5-(4-Chlorophenyl)-1-(2,4-dichlorophenyl)-4-methyl-1H-pyrazol-3-yl)-5-(tetrahydro-2H-pyran-4-yl)-1,3,4-thiadiazole]

The next lines start with the compound.

Row | SMILES | IC50 [nM]
20 | Clc1ccc(-c2c(Cn3cncn3)c(-c3nnc(C4(c5ccc(Cl)cc5)CCC4)o3)nn2-c2ccc(Cl)cc2Cl)cc1 [Example 322, 2-(4-((1H-1,2,4-triazol-1-yl)methyl)-5-(4-chlorophenyl)-1-(2,4-dichlorophenyl)-1H-pyrazol-3-yl)-5-(1-(4-chlorophenyl)cyclobutyl)-1,3,4-oxadiazole] | 3.41
21 | CC(C)(C)c1nnc(-c2nn(-c3ccc(Cl)cc3Cl)c(-c3ccc(Br)cc3)c2Cn2cncn2)o1 [Example 329, 2-(4-((1H-1,2,4-triazol-1-yl)methyl)-5-(4-bromophenyl)-1-(2,4-dichlorophenyl)-1H-pyrazol-3-yl)-5-tert-butyl-1,3,4-oxadiazole] | 2.75
22 | CC(C)(C)c1nnc(-c2nn(-c3ccc(Cl)cc3Cl)c(-c3ccc(Cl)cc3)c2Cc2nnn[nH]2)o1 [Example 330, 2-(4-((1H-tetrazol-5-yl)methyl)-5-(4-chlorophenyl)-1-(2,4-dichlorophenyl)-1H-pyrazol-3-yl)-5-tert-butyl-1,3,4-oxadiazole] | 897
23 | CCC(C)(C)c1nnc(-c2nn(-c3ccc(Cl)cc3Cl)c(-c3ccc(Cl)cc3)c2Cl)o1 [Example 334, 2-(4-chloro-5-(4-chlorophenyl)-1-(2,4-dichlorophenyl)-1H-pyrazol-3-yl)-5-tert-pentyl-1,3,4-oxadiazole] | 51
24 | Clc1ccc(-c2c(Cl)c(-c3nnc(C4CCCCC4)o3)nn2-c2ccc(Cl)cc2Cl)cc1 [Example 335, 2-(4-chloro-5-(4-chlorophenyl)-1-(2,4-dichlorophenyl)-1H-pyrazol-3-yl)-5-cyclohexyl-1,3,4-oxadiazole] | 512
25 | CCC(C)c1nnc(-c2nn(-c3ccc(Cl)cc3Cl)c(-c3ccc(Cl)cc3)c2Cl)o1 (centres unmarked) [Example 336, 2-sec-butyl-5-(4-chloro-5-(4-chlorophenyl)-1-(2,4-dichlorophenyl)-1H-pyrazol-3-yl)-1,3,4-oxadiazole] | 207
26 | CCC(C)c1nnc(-c2nn(-c3ccc(Cl)cc3Cl)c(-c3ccc(Cl)cc3)c2Br)o1 (centres unmarked) [Example 339, 2-(4-bromo-5-(4-chlorophenyl)-1-(2,4-dichlorophenyl)-1H-pyrazol-3-yl)-5-sec-butyl-1,3,4-oxadiazole] | 21.3
27 | Clc1ccc(-c2c(Br)c(-c3nnc(C4CCC4)o3)nn2-c2ccc(Cl)cc2Cl)cc1 [Example 340, 2-(4-bromo-5-(4-chlorophenyl)-1-(2,4-dichlorophenyl)-1H-pyrazol-3-yl)-5-cyclobutyl-1,3,4-oxadiazole] | 35.5
28 | CCC(C)(C)c1nnc(-c2nn(-c3ccc(Cl)cc3Cl)c(-c3ccc(Cl)cc3)c2Br)o1 [Example 342, 2-(4-bromo-5-(4-chlorophenyl)-1-(2,4-dichlorophenyl)-1H-pyrazol-3-yl)-5-tert-pentyl-1,3,4-oxadiazole] | 27.8
29 | Cc1c(-c2nnc(C3CCCC3)s2)nn(-c2ccc(Cl)cc2Cl)c1-c1ccc(Cl)cc1 [Example 346, 2-(5-(4-chlorophenyl)-1-(2,4-dichlorophenyl)-4-methyl-1H-pyrazol-3-yl)-5-cyclopentyl-1,3,4-thiadiazole] | 8.8
30 | Cc1c(-c2nnc(C(C)C)s2)nn(-c2ccc(Cl)cc2Cl)c1-c1ccc(Cl)cc1 [Example 353, 2-(5-(4-chlorophenyl)-1-(2,4-dichlorophenyl)-4-methyl-1H-pyrazol-3-yl)-5-isopropyl-1,3,4-thiadiazole] | 21.5
31 | Cc1c(-c2nnc(-c3ccccc3)s2)nn(-c2ccc(Cl)cc2Cl)c1-c1ccc(Cl)cc1 [Example 356, 2-(5-(4-Chlorophenyl)-1-(2,4-dichlorophenyl)-4-methyl-1H-pyrazol-3-yl)-5-phenyl-1,3,4-thiadiazole] | 231
32 | Cc1c(-c2nnc(CC3CCCC3)s2)nn(-c2ccc(Cl)cc2Cl)c1-c1ccc(Cl)cc1 [Example 357, 2-(5-(4-Chlorophenyl)-1-(2,4-dichlorophenyl)-4-methyl-1H-pyrazol-3-yl)-5-(cyclopentylmethyl)-1,3,4-thiadiazole] | 30.9
